# Results: patent publication US8952024B2, “Herbicidal pyrimidone derivatives” (E I du Pont de Nemours and Company, priority 2009, dated 2015)
# Assays:
# Format in all cases: in vivo
# [1] = system: Italian ryegrass (Lolium multiflorum); assay: Test B pre-/postemergence plant response; details: for Ryegrass, Italian plant response rating (0 to 100 scale): 62 g ai/ha, 0 is no effect, 13 to 15 days
# In short: (§1)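 Visually scored on a 0 to 100 scale after 13 to 15 days in greenhouse versus controls. Treatments were preemergence on seeded loam/sand soil and postemergence on 1- to 4-leaf plants.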
# [2] = system: Surinam grass (Brachiaria decumbens); assay: Test B pre-/postemergence plant response; details: for Surinam Grass plant response rating (0 to 100 scale): 62 g ai/ha, 0 is no effect, 13 to 15 days
# In short: as §1
# [3] = system: bermudagrass (Cynodon dactylon); assay: Test B pre-/postemergence plant response; details: for Bermudagrass plant response rating (0 to 100 scale): 62 g ai/ha, 0 is no effect, 13 to 15 days
# In short: as §1
# [4] = system: blackgrass (Alopecurus myosuroides); assay: Test B pre-/postemergence plant response; details: for Blackgrass plant response rating (0 to 100 scale): 62 g ai/ha, 0 is no effect, 13 to 15 days
# In short: as §1
# [5] = system: corn (Zea mays); assay: Test B pre-/postemergence plant response; details: for Corn plant response rating (0 to 100 scale): 62 g ai/ha, 0 is no effect, 13 to 15 days
# In short: as §1
# [6] = system: johnsongrass (Sorghum halepense); assay: Test B pre-/postemergence plant response; details: for Johnsongrass plant response rating (0 to 100 scale): 62 g ai/ha, 0 is no effect, 13 to 15 days
# In short: as §1
# [7] = system: lambsquarters (Chenopodium album); assay: Test B pre-/postemergence plant response; details: for Lambsquarters plant response rating (0 to 100 scale): 62 g ai/ha, 0 is no effect, 13 to 15 days
# In short: as §1
# [8] = system: large crabgrass (Digitaria sanguinalis); assay: Test B pre-/postemergence plant response; details: for Crabgrass, Large plant response rating (0 to 100 scale): 62 g ai/ha, 0 is no effect, 13 to 15 days
# In short: as §1
# [9] = system: ragweed (common ragweed, Ambrosia elatior); assay: Test B pre-/postemergence plant response; details: for Ragweed plant response rating (0 to 100 scale): 62 g ai/ha, 0 is no effect, 13 to 15 days
# In short: as §1
# [10] = system: soybean (Glycine max); assay: Test B pre-/postemergence plant response; details: for Soybean plant response rating (0 to 100 scale): 62 g ai/ha, 0 is no effect, 13 to 15 days
# In short: as §1
# [11] = system: velvetleaf (Abutilon theophrasti); assay: Test B pre-/postemergence plant response; details: for Velvetleaf plant response rating (0 to 100 scale): 62 g ai/ha, 0 is no effect, 13 to 15 days
# In short: as §1
# [12] = system: wild oat (Avena fatua); assay: Test B pre-/postemergence plant response; details: for Oat, Wild plant response rating (0 to 100 scale): 62 g ai/ha, 0 is no effect, 13 to 15 days
# In short: as §1
# [13] = system: woolly cupgrass (Eriochloa villosa); assay: Test B pre-/postemergence plant response; details: for Cupgrass, Woolly plant response rating (0 to 100 scale): 62 g ai/ha, 0 is no effect, 13 to 15 days
# In short: as §1
# [14] = system: yellow nutsedge (Cyperus esculentus); assay: Test B pre-/postemergence plant response; details: for Nutsedge, Yellow plant response rating (0 to 100 scale): 62 g ai/ha, 0 is no effect, 13 to 15 days
# In short: as §1
# [15] = system: canarygrass (Phalaris minor); assay: Test B postemergence plant response; details: for Canarygrass plant response rating (0 to 100 scale): 62 g ai/ha, 0 is no effect, 13 to 15 days
# In short: (§2)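 Plants grown in peat/vermiculite medium were sprayed postemergence at 2–18 cm height (1- to 4-leaf stage). After 13–15 days in the greenhouse, response was rated visually against untreated controls on a 0–100 scale (0 no effect, 100 complete control).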
# [16] = system: chickweed (Stellaria media); assay: Test B postemergence plant response; details: for Chickweed plant response rating (0 to 100 scale): 62 g ai/ha, 0 is no effect, 13 to 15 days
# In short: as §2
# [17] = system: windgrass (Apera spica-venti); assay: Test B postemergence plant response; details: for Windgrass plant response rating (0 to 100 scale): 62 g ai/ha, 0 is no effect, 13 to 15 days
# In short: as §2
# [18] = system: winter barley (Hordeum vulgare); assay: Test B postemergence plant response; details: for Barley plant response rating (0 to 100 scale): 62 g ai/ha, 0 is no effect, 13 to 15 days
# In short: as §2
# [19] = 31 g ai/ha, postemergence, scale 0 to 100, 0 is no effect, 100 is complete control
# [20] = postemergence, 100 is complete control
# [21] = Postemergence, 250 g ai/ha, scale 0 to 100 (0 no effect, 100 complete control)
# [22] = Postemergence, 125 g ai/ha, visual rating after 13 to 15 days, scale 0 (no effect) to 100 (complete control)
smiles,measurement,setting,value
CCCCCCn1c(-c2ccccc2)ncc(C(=O)C2=C(O)CCCC2=O)c1=O [Compound 94],"Plant response rating, Ryegrass, Italian",[1]; [19],0
same,"Ryegrass, Italian plant response rating (0 to 100 scale)",[1]; [20],0
same,"Plant response rating, Ryegrass, Italian",[1]; [21],10
same,Surinam Grass plant response rating (0 to 100 scale),[2]; [20],60
same,"Plant response rating, Surinam Grass",[2]; [21],80
same,"Plant response rating, Bermudagrass",[3]; [19],80
same,Bermudagrass plant response rating (0 to 100 scale),[3]; [20],80
same,"Plant response rating, Bermudagrass",[3]; [22],98
same,"Plant response rating, Bermudagrass",[3]; [21],98
same,"Plant response rating, Blackgrass",[4]; [19],5
same,Blackgrass plant response rating (0 to 100 scale),[4]; [20],10
same,"Plant response rating, Blackgrass",[4]; [22],10
same,"Plant response rating, Blackgrass",[4]; [21],20
same,"Plant response rating, Corn",[5]; [19],0
same,Corn plant response rating (0 to 100 scale),[5]; [20],55
same,"Plant response rating, Corn",[5]; [22],70
same,"Plant response rating, Corn",[5]; [21],80
same,Johnsongrass plant response rating (0 to 100 scale),[6]; [20],15
same,"Plant response rating, Johnsongrass",[6]; [21],45
same,"Plant response rating, Lambsquarters",[7]; [19],80
same,Lambsquarters plant response rating (0 to 100 scale),[7]; [20],95
same,"Plant response rating, Lambsquarters",[7]; [21],100
same,"Plant response rating, Crabgrass, Large",[8]; [19],70
same,"Crabgrass, Large plant response rating (0 to 100 scale)",[8]; [20],75
same,"Plant response rating, Crabgrass, Large",[8]; [22],90
same,"Plant response rating, Crabgrass, Large",[8]; [21],90
same,"Plant response rating, Ragweed",[9]; [19],40
same,Ragweed plant response rating (0 to 100 scale),[9]; [20],45
same,"Plant response rating, Ragweed",[9]; [21],80
same,"Plant response rating, Soybean",[10]; [19],65
same,Soybean plant response rating (0 to 100 scale),[10]; [20],80
same,"Plant response rating, Soybean",[10]; [21],95
same,Velvetleaf plant response rating (0 to 100 scale),[11]; [20],70
same,"Plant response rating, Velvetleaf",[11]; [21],80
same,"Plant response rating, Oat, Wild",[12]; [19],0
same,"Oat, Wild plant response rating (0 to 100 scale)",[12]; [20],5
same,"Plant response rating, Oat, Wild",[12]; [21],30
same,"Cupgrass, Woolly plant response rating (0 to 100 scale)",[13]; [20],65
same,"Plant response rating, Cupgrass, Woolly",[13]; [22],65
same,"Plant response rating, Cupgrass, Woolly",[13]; [21],70
same,"Plant response rating, Nutsedge, Yellow",[14]; [19],20
same,"Nutsedge, Yellow plant response rating (0 to 100 scale)",[14]; [20],20
same,"Plant response rating, Nutsedge, Yellow",[14]; [21],65
same,"Plant response rating, Canarygrass",[15]; [19],0
same,Canarygrass plant response rating (0 to 100 scale),[15]; [20],5
same,"Plant response rating, Canarygrass",[15]; [22],30
same,"Plant response rating, Canarygrass",[15]; [21],35
same,"Plant response rating, Chickweed",[16]; [19],95
same,Chickweed plant response rating (0 to 100 scale),[16]; [20],100
same,"Plant response rating, Chickweed",[16]; [22],100
same,"Plant response rating, Chickweed",[16]; [21],100
same,"Plant response rating, Windgrass",[17]; [19],0
same,Windgrass plant response rating (0 to 100 scale),[17]; [20],40
same,"Plant response rating, Windgrass",[17]; [21],50
same,"Plant response rating, Barley",[18]; [19],0
same,Barley plant response rating (0 to 100 scale),[18]; [20],0
same,"Plant response rating, Barley",[18]; [22],5
same,"Plant response rating, Barley",[18]; [21],5
CCOCCn1c(-c2ccccc2)ncc(C(=O)C2=C(O)CCCC2=O)c1=O [Compound 96],"Plant response rating, Ryegrass, Italian",[1]; [19],0
same,"Ryegrass, Italian plant response rating (0 to 100 scale)",[1]; [20],5
same,"Plant response rating, Ryegrass, Italian",[1]; [21],10
same,"Plant response rating, Surinam Grass",[2]; [19],75
same,Surinam Grass plant response rating (0 to 100 scale),[2]; [20],75
same,"Plant response rating, Surinam Grass",[2]; [21],85
same,"Plant response rating, Bermudagrass",[3]; [19],80
same,Bermudagrass plant response rating (0 to 100 scale),[3]; [20],95
same,"Plant response rating, Bermudagrass",[3]; [22],95
same,"Plant response rating, Bermudagrass",[3]; [21],98
same,"Plant response rating, Blackgrass",[4]; [19],5
same,Blackgrass plant response rating (0 to 100 scale),[4]; [20],20
same,"Plant response rating, Blackgrass",[4]; [22],30
same,"Plant response rating, Blackgrass",[4]; [21],40
same,"Plant response rating, Corn",[5]; [19],45
same,Corn plant response rating (0 to 100 scale),[5]; [20],60
same,"Plant response rating, Corn",[5]; [22],65
same,"Plant response rating, Corn",[5]; [21],80
same,"Plant response rating, Johnsongrass",[6]; [19],20
same,Johnsongrass plant response rating (0 to 100 scale),[6]; [20],45
same,"Plant response rating, Johnsongrass",[6]; [21],80
same,"Plant response rating, Lambsquarters",[7]; [19],90
same,Lambsquarters plant response rating (0 to 100 scale),[7]; [20],98
same,"Plant response rating, Lambsquarters",[7]; [21],100
same,"Plant response rating, Crabgrass, Large",[8]; [19],75
same,"Crabgrass, Large plant response rating (0 to 100 scale)",[8]; [20],80
same,"Plant response rating, Crabgrass, Large",[8]; [22],85
same,"Plant response rating, Crabgrass, Large",[8]; [21],90
same,"Plant response rating, Ragweed",[9]; [19],80
same,Ragweed plant response rating (0 to 100 scale),[9]; [20],80
same,"Plant response rating, Ragweed",[9]; [21],95
same,"Plant response rating, Soybean",[10]; [19],65
same,Soybean plant response rating (0 to 100 scale),[10]; [20],75
same,"Plant response rating, Soybean",[10]; [21],98
same,"Plant response rating, Velvetleaf",[11]; [19],95
same,Velvetleaf plant response rating (0 to 100 scale),[11]; [20],98
same,"Plant response rating, Velvetleaf",[11]; [21],100
same,"Plant response rating, Oat, Wild",[12]; [19],0
same,"Oat, Wild plant response rating (0 to 100 scale)",[12]; [20],5
same,"Plant response rating, Oat, Wild",[12]; [21],30
same,"Plant response rating, Cupgrass, Woolly",[13]; [19],70
same,"Cupgrass, Woolly plant response rating (0 to 100 scale)",[13]; [20],75
same,"Plant response rating, Cupgrass, Woolly",[13]; [22],85
same,"Plant response rating, Cupgrass, Woolly",[13]; [21],85
same,"Plant response rating, Nutsedge, Yellow",[14]; [19],70
same,"Nutsedge, Yellow plant response rating (0 to 100 scale)",[14]; [20],70
same,"Plant response rating, Nutsedge, Yellow",[14]; [21],85
same,"Plant response rating, Canarygrass",[15]; [19],0
same,Canarygrass plant response rating (0 to 100 scale),[15]; [20],5
same,"Plant response rating, Canarygrass",[15]; [22],30
same,"Plant response rating, Canarygrass",[15]; [21],45
same,"Plant response rating, Chickweed",[16]; [19],75
same,Chickweed plant response rating (0 to 100 scale),[16]; [20],95
same,"Plant response rating, Chickweed",[16]; [22],98
same,"Plant response rating, Chickweed",[16]; [21],100
same,"Plant response rating, Windgrass",[17]; [19],5
same,Windgrass plant response rating (0 to 100 scale),[17]; [20],10
same,"Plant response rating, Windgrass",[17]; [21],45
same,"Plant response rating, Barley",[18]; [19],0
same,Barley plant response rating (0 to 100 scale),[18]; [20],0
same,"Plant response rating, Barley",[18]; [22],0
same,"Plant response rating, Barley",[18]; [21],5
